# Tests used:
# [1] = system: LNCaP-ARR2-GFP cells; assay: AR-regulated GFP expression in LNCaP-ARR2-GFP cells; assay type: cell-based; conditions: SMEM, absence of DHT; DL3 at 25 nM or 20 μM
# [2] = system: LNCaP-AI cells; assay: Growth of androgen-independent LNCaP-AI cells, MTT; assay type: cell-based; conditions: SMEM, four days
# Experimental: See, for example, FIG. 3 where LNCaP-A1 cells in SMEM and 22Rv1 cells in CMEM are cultured for four days with DL3, followed by MTT staining and 22Rv1 cells are obtained from ATCC.
# [3] = system: LNCaP-Flut-R cells; assay: PSA secretion, ELISA of culture supernatant; assay type: cell-based; conditions: 1 nM DHT, 10 μM, 48 hr (FIG. 5D)
# Experimental: (§1) For the following discussion, see FIG. 5, where androgen-starved LNCaP, LNCaP-Flut-R, or LNCaP-Nilut-R cells are plated into 96-well plates at 2×10^4 cells/wells in SMEM and treated for 48 hr. PSA in the culture supernatant is determined by using an enzyme-linked immunosorbent assay (ELISA) kit. PSA levels are normalized by cell density. […] The DHT-induced production of PSA is reduced by approximately 50% in cells treated with 5 μM of DL3 (FIG. 5B). […] PSA production is elevated in LNCaP-Flut-R and LNCaP-Nilut-R cells compared with that in their parental cells (FIG. 5D).
# [4] = system: LNCaP-Nilut-R cells; assay: PSA secretion, ELISA of culture supernatant; assay type: cell-based; conditions: 1 nM DHT, 10 μM, 48 hr (FIG. 5D)
# Experimental: as §1
# [5] = system: LAPC-4 cells (wildtype AR); assay: Cellular PSA and AR protein, western blotting; assay type: cell-based
# [6] = system: 22Rv1 cells; assay: Cellular PSA and AR protein, western blotting; assay type: cell-based; conditions: 24 hr
# [7] = system: LNCaP cells; assay: PSA and AR mRNA expression, RT-PCR; assay type: cell-based; conditions: 24 hr
# Experimental: In FIG. 7 LNCaP or 22Rv1 cells (A) are treated for 24 hr with DL3 and total RNA is extracted and analyzed by real-time RT-PCR. […] PSA mRNA in LNCaP cells is approximately 20 fold higher than that in 22Rv1 cells (FIG. 7A).
# [8] = system: LNCaP cells; assay: Expression of AR-regulated genes, quantitative RT-PCR (Table 1); assay type: cell-based; conditions: DL3 20 μM for 24 hr
# Experimental: To evaluate the specificity of the effects of DL3, expression of several other genes are determined by quantitative RT-PCR. […] In contrast, DL3 enhances expression of prostate-specific membrane antigen (PSMA), which is repressed by AR activation.
# [9] = biological target: T1, AR N/C interaction (Homo sapiens, UniProt P10275); assay: AR N/C interaction, mammalian two-hybrid luciferase in HeLa cells; assay type: cell-based; conditions: 24 hr
# T1 construct: the AR LBD and GAL4 DBD fusion protein (GAL4-LBD); expressed in transfected cells; host or cells: HeLa
# T1 sequence (P10275 669-900 limits assumed): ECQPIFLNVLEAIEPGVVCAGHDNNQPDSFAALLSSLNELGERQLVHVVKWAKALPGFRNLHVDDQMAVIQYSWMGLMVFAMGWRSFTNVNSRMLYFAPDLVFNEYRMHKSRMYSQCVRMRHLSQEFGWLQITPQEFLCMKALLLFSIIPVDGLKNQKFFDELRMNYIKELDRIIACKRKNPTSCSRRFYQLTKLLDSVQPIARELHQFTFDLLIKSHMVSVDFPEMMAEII
# From the text: This is done in a mammalian two-hybrid system, in which HeLa cells are cotransfected with vectors encoding the luciferase reporter driven by a tandem GAL4-responsive elements (GAL4-luc), the AR LBD and GAL4 DBD fusion protein (GAL4-LBD), and AR NTD and VP16 transactivation domain fusion protein (VP16-NTD).
# [10] = system: LNCaP cells; assay: PSA and AR mRNA expression, RT-PCR; assay type: cell-based; conditions: 6 hr
# [11] = system: human PSA gene promoter; assay: PSA promoter luciferase reporter (pGL3-PSA-luc) in LNCaP cells; conditions: 24 hr
# [12] = biological target: T2, wildtype AR (Homo sapiens, UniProt P10275); assay: PSA promoter luciferase reporter in PC-3 cells co-transfected with AR; conditions: PC-3 cells transfected with wildtype AR, 20 μM, 1 nM DHT, 24 hr
# T2 sequence (P10275 1-920): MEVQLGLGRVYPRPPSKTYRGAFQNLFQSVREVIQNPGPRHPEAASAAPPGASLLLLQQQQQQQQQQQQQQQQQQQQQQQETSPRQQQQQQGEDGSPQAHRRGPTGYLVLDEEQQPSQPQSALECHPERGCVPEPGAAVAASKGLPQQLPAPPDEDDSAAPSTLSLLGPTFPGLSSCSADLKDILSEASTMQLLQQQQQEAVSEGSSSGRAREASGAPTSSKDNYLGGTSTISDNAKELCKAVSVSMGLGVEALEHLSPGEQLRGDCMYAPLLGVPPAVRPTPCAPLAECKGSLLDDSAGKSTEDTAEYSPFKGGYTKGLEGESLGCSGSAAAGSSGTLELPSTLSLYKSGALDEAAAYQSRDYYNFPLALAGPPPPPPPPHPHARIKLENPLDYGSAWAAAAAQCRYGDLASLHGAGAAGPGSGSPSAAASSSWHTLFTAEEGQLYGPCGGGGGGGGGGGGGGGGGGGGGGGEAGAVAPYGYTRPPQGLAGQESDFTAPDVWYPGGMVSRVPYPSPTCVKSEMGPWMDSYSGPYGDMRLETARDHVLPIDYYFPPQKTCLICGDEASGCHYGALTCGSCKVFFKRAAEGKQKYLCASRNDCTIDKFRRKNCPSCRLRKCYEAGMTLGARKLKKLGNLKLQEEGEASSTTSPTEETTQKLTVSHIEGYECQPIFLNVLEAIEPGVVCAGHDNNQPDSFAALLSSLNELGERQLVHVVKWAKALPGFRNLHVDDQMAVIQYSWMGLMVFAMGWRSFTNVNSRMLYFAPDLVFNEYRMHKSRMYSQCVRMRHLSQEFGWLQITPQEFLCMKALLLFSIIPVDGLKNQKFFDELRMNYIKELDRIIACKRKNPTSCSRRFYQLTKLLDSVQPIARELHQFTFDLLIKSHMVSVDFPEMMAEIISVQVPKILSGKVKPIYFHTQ
# [13] = system: AR-AF2 (NTD deleted); assay: PSA promoter luciferase reporter in PC-3 cells co-transfected with AR-AF2; conditions: 20 μM, 24 hr
smiles,measurement,setting,value
"CC(C)(C)c1ccc(OCCSc2nc(=O)cc(N)[nH]2)cc1 [DL3, 6-amino-2-(2-4-tert-butyl-phenoxy)-ethylsulfanyl-1H-pyrimidin-4-one]",GFP expression (AR agonist activity),[1],does not induce GFP expression
same,growth of androgen-independent LNCaP-AI cells,[2],suppressed
same,PSA production in LNCaP-Flut-R cells,[3],inhibits PSA production
same,PSA production in LNCaP-Nilut-R cells,[4],inhibits PSA production
same,AR protein expression,"[5]; 20 μM, 24 hr",similarly reduced
same,DHT-induced PSA protein expression,"[5]; SMEM, 1 nM DHT, 20 μM DL3, 24 hr",inhibitory effects
same,expression of AR protein,[6]; 5 and 10 μM,not significantly altered
same,expression of AR protein,[6]; 20 and 40 μM,reduced
same,PSA protein expression,"[6]; CMEM, increasing concentrations",inhibitory effects
same,DHT-stimulated PSA mRNA expression,"[7]; 20 μM, 1 nM DHT",abolishes
same,basal level of PSA mRNA,"[7]; 20 μM, androgen-starved",significantly reduces
same,expression of AR mRNA,"[7]; 1 nM DHT, 20 μM DL3 or Bical",partially downregulated
same,expression of PSA mRNA,"[7]; CMEM, dose response (FIG. 7A)",inhibits the expression of PSA mRNA
same,IL-8 expression DL3/CTR (%),[8],107%
same,IL-8 expression level relative to β-actin,[8],8.59e−04
same,PSA expression DL3/CTR (%),[8],3%
same,PSA expression level relative to β-actin,[8],3.03e−02
same,PSCA expression DL3/CTR (%),[8],55%
same,PSCA expression level relative to β-actin,[8],1.90e−04
same,PSMA expression DL3/CTR (%),[8],379%
same,PSMA expression level relative to β-actin,[8],1.35e−01
same,hK2 expression DL3/CTR (%),[8],18%
same,hK2 expression level relative to β-actin,[8],4.05e−03
same,DHT-induced N/C interaction,"[9]; 1 nM DHT, different concentrations",not significantly altered
same,"luciferase activity (N/C interaction), compound alone",[9]; no DHT,not significantly altered
same,AR mRNA expression,[10],not significantly altered
same,basal PSA promoter activity,[11]; 20 μM alone,does not significantly alter
same,PSA promoter activity induced by DHT,"[11]; 20 μM, 1 nM DHT",attenuates
same,DHT-induced activation of PSA promoter activity,[12],significantly inhibits
same,activation of PSA promoter activity by AR-AF2,[13],does not inhibit
